Test results: patent publication US11414436B2, “Non-coordinating anion type activators containing cation having large alkyl groups” (ExxonMobil Chemical Patents Inc., priority 2018, dated 2022)

How the values were obtained:
[1] = Solubility studies of the activators (saturated solution in isohexane or methylcyclohexane); assay type: physicochemical; conditions: for Solubility limit in i-hexane (mM at 25° C.) / Solubility limit in i-hexane (wt % at 25° C.): isohexane; for Solubility limit in MeCy (mM at 25° C.): methylcyclohexane
Experimental: Solubility Studies of the Activators
Procedure for Solid Activators.
A saturated solution of each of the solid ammonium borate activators was prepared by stirring an excess of the activator with either isohexane or methylcyclohexane solvent for several hours at 25° C. The mixture was then filtered and a known volume of the filtrate was evaporated to dryness in a tared vial. The vial was then weighed to determine the mass of activator that was dissolved in the aliquot. The concentration of the saturated solution is presented in millimoles of activator per liter of solution (mM).
Procedure for Activators that Form Emulsions.
A saturated solution of the activator was prepared by slowly adding the solvent to a pre-weighed amount of the activator. The final volume was determined as the minimum amount of solvent required to convert the emulsion into a homogeneous solution. The concentration of the saturated solution is presented in millimoles of activator per liter of solution (mM). Alternatively, an emulsion of the activator was prepared by adding the solvent to an excess amount of activator. The resulting emulsion was separated from the undissolved solids by decanting the emulsion into a tared vial. Solvent was then added dropwise until the emulsion became homogeneous. The mass of the final solution was measured and then the solvent was evaporated to dryness to obtain the mass of the activator. The concentration of the saturated solution is presented in millimoles of activator per liter of solution (mM).

[2] = as above; assay type: physicochemical; conditions: methylcyclohexane

Solubility limit in i-hexane (mM at 25° C.) [1]	Solubility limit in i-hexane (wt % at 25° C.) [1]	Solubility limit in MeCy (mM at 25° C.) [1]	Solubility limit in MeCy (wt % at 25° C.) [2]	SMILES
<0.1 mM	<0.1 wt %	1.9 mM	0.3 wt %	CCCCCCCCCCCCCCCCCCc1ccc([NH+](C)C)cc1.Fc1c(F)c(F)c2c(F)c([B-](c3c(F)c(F)c4c(F)c(F)c(F)c(F)c4c3F)(c3c(F)c(F)c4c(F)c(F)c(F)c(F)c4c3F)c3c(F)c(F)c4c(F)c(F)c(F)c(F)c4c3F)c(F)c(F)c2c1F [OdDMAH-BF28, N,N-dimethyl-4-octadecylbenzenaminium-BF28]
2.9 mM	1.9 wt %	> 200 mM	>40 wt %	CCCCCCCCCCCCCCCCCC[NH+](CCCCCCCCCCCCCCCCCC)c1ccccc1C(C)C.Fc1c(F)c(F)c2c(F)c([B-](c3c(F)c(F)c4c(F)c(F)c(F)c(F)c4c3F)(c3c(F)c(F)c4c(F)c(F)c(F)c(F)c4c3F)c3c(F)c(F)c4c(F)c(F)c(F)c(F)c4c3F)c(F)c(F)c2c1F [DOdPAH-BF28, 2-isopropyl-N,N-dioctadecylbenzenaminium-BF28]

More lines, now with the values behind:

SMILES	Solubility limit in i-hexane (mM at 25° C.) [1]	Solubility limit in i-hexane (wt % at 25° C.) [1]	Solubility limit in MeCy (mM at 25° C.) [1]	Solubility limit in MeCy (wt % at 25° C.) [2]
CCCCCCCCCC[NH+](CCCCCCCCCC)c1ccc(C)cc1.Fc1c(F)c(F)c([B-](c2c(F)c(F)c(F)c(F)c2F)(c2c(F)c(F)c(F)c(F)c2F)c2c(F)c(F)c(F)c(F)c2F)c(F)c1F [DDTH-BF20, N,N-didecyl-4-methylanilinium-BF20]	1.5 mM	0.22 wt %	1.7 mM	0.21 wt %
CCCCCCCCCCCCCCCCCCc1ccc([NH+](C)C)cc1.Fc1c(F)c(F)c([B-](c2c(F)c(F)c(F)c(F)c2F)(c2c(F)c(F)c(F)c(F)c2F)c2c(F)c(F)c(F)c(F)c2F)c(F)c1F [OdDMAH-BF20, N,N-dimethyl-4-octadecylbenzenaminium-BF20]	0.8 mM	0.10 wt %	7.9 mM	1.1 wt %
CCCCCCCCCC[NH+](C)c1ccccc1.Fc1c(F)c(F)c2c(F)c([B-](c3c(F)c(F)c4c(F)c(F)c(F)c(F)c4c3F)(c3c(F)c(F)c4c(F)c(F)c(F)c(F)c4c3F)c3c(F)c(F)c4c(F)c(F)c(F)c(F)c4c3F)c(F)c(F)c2c1F [MDAH-BF28, N-decyl-N-methylanilinium-BF28]	0.9 mM	0.12 wt %	1.7 mM	0.21 wt %
